# Measurements taken from PubChem BioAssay (NCI).
# Where “and” joins values, the source holds several entries; their conditions need not be identical. Equal entries are not always repeated.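 48-hour exposure; five concentrations; linearly interpolated endpoints. Here, GI50 denotes the concentration required for 50% inhibition of growth. TGI: total growth inhibition.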
# What was measured:
# Experiment in all cases: NCI tumour cell line growth inhibition, 48 h
# CAKI-1 renal = system: CAKI-1 renal
# DU-145 prostate = system: DU-145 prostate
# HOP-92 NSCLC = system: HOP-92 NSCLC
# K-562 leukemia = system: K-562 leukemia
# OVCAR-3 ovarian = system: OVCAR-3 ovarian
# OVCAR-8 ovarian = system: OVCAR-8 ovarian
# RXF 393 renal = system: RXF 393 renal
# SK-MEL-2 melanoma = system: SK-MEL-2 melanoma
# SR leukemia = system: SR leukemia
# UO-31 renal = system: UO-31 renal
SMILES,GI50 (CAKI-1 renal),TGI (CAKI-1 renal),GI50 (DU-145 prostate),TGI (DU-145 prostate),GI50 (HOP-92 NSCLC),TGI (HOP-92 NSCLC),GI50 (K-562 leukemia),TGI (K-562 leukemia),GI50 (OVCAR-3 ovarian),TGI (OVCAR-3 ovarian),GI50 (OVCAR-8 ovarian),TGI (OVCAR-8 ovarian),GI50 (RXF 393 renal),TGI (RXF 393 renal),GI50 (SK-MEL-2 melanoma),TGI (SK-MEL-2 melanoma),TGI (SR leukemia),GI50 (UO-31 renal),TGI (UO-31 renal),GI50 (SR leukemia)
O=C(Nc1cccc(Cl)c1)Nn1cnnc1,> 50 µM,> 100 µM,> 50 µM,> 100 µM,12.7 µM,50 µM and > 100 µM,> 50 µM,> 100 µM,> 50 µM,> 100 µM,> 50 µM,> 100 µM,> 50 µM,> 100 µM,> 50 µM,> 100 µM,> 100 µM,> 50 µM,> 100 µM,
N#CC(C#N)=C/C=C(\Cl)c1ccc(Cl)cc1,3.78 µM,12.6 µM,11.6 µM,29.7 µM,3.81 µM,11.4 µM,0.7 µM,,6.5 µM,17.4 µM,10.1 µM,31.4 µM,7.63 µM,34.9 µM,17.7 µM,> 100 µM,37.3 µM,14.4 µM,44.9 µM,3.31 µM
COC(=O)C1=C(O)C(C(=O)OC)C2CC(=O)CC1C2(C)C (stereo not drawn),,> 100 µM,,> 100 µM,,> 100 µM,,> 100 µM,,> 100 µM,,> 100 µM,,> 100 µM,,> 100 µM,> 100 µM,,> 100 µM,
O=C(NCC1CC1)c1ccc(-c2cccc(C(=O)NC3CC3)c2)cc1,> 25 µM,> 25 µM,> 25 µM,> 25 µM,6.66 µM,> 25 µM,> 25 µM,> 25 µM,> 25 µM,> 25 µM,> 25 µM,> 25 µM,> 25 µM,> 25 µM,> 25 µM,> 25 µM,> 25 µM,> 25 µM,> 25 µM,> 23.3 µM
C=C1CCC2C3(C)COC(C)(C)OC3CCC2(C)C1C/C=C1/C(=O)OCC1OC(C)=O (stereo not drawn),4.92 µM,13 µM,4.28 µM,14 µM,10.8 µM,24.2 µM,2.85 µM,23.2 µM,2.47 µM,6.07 µM,2.18 µM,6.8 µM,1.6 µM,3.32 µM,3.52 µM,15.6 µM,9.03 µM,6.27 µM,15.5 µM,2.37 µM
CN(C)c1cc2ccccc2oc1=O,,> 100 µM,,> 100 µM,,> 100 µM,,> 100 µM,,> 100 µM,,> 100 µM,,> 100 µM,,> 100 µM,> 100 µM,,> 100 µM,
